Reference: patent EP0595557A1, “New substituted azetidinones as anti-inflammatory and antidegenerative agents” (MERCK & CO. INC., priority 1992, dated 1994)

Target: T1, Human Polymorphonuclear Leukocyte Elastase (Homo sapiens, UniProt P08246)
T1 construct: Crude extract of human polymorphonuclear leukocytes (PMN) containing elastase activity; from tissue; host or cells: human polymorphonuclear leukocytes (crude extract)
T1 sequence (P08246 30-267): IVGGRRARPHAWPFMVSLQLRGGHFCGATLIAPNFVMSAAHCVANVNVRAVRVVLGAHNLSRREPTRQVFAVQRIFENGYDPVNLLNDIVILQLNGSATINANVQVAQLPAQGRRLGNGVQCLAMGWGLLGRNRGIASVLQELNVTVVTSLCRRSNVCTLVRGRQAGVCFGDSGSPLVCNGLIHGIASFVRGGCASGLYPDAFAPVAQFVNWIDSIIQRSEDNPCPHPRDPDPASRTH
Test: Enzyme assay for inhibition of human polymorphonuclear leukocyte elastase via hydrolysis of Boc-AAPAN or Boc-AAPVN
Assay type: biochemical
Conditions: pH 7.5, second order rate constant for inactivation of the enzyme, expressed to the nearest thousand, read-out: Kobs/[I]
Procedure: Enzyme Assays for the Inhibition of Human Polymorphonuclear Leukocyte Elastase Via Hydrolysis of N-t-Boc-alanyl-alanyl-prolylalanine-p-nitroanilide (Boc-AAPAN) or N-t-Boc-alanyl-prolylvaline-p-nitro-anilide (Boc-AAPVN) Reagent:
0.05M TES (N-tris[hydroxymethyl]methyl-2-mino-ethanesulfonic acid) Buffer, pH 7.5.
0.2 mM Boc-AAPAN or Boc-AAPVN.
To prepare substrate, the solid was first dissolved in 10.0 ml DMSO. Buffer at pH 7.5 was then added to a final volume of 100 ml.
Crude extract of human polymorphonuclear leukocytes (PMN) containing elastase activity.
Inhibitors (azetidinones) to be tested dissolved in DMSO just before use.
To 1.0 ml of 0.2 mM Boc-AAPAN in a cuvette, 0.01-0.1 ml of DMSO with or without inhibitor was added. After mixing, a measurement was taken at 410 mµ to detect any spontaneous hydrolysis due to presence of test compound. 0.05 Milliliters of PMN extract was then added and the ΔOD/min at 410 mµ was measured and recorded. Beckman model 35 spectrophotometer was used.
Results were expressed to the nearest thousand ^kobs/I which is the second order rate constant in per mole per second for inactivation of the enzyme.
The elastase activity in the crude PMN extract may vary from one preparation to another. A control of each new batch is run, and the volume added in the assay procedure is adjusted according to activity.

SMILES	kinact/KI
CCC[C@@H](NC(=O)N1C(=O)C(CC)(CC)[C@@H]1Oc1ccc(C(=O)OCCN(CC)CC)cc1)c1ccc(C)cc1 [Compound 16, 2-Diethylaminoethyl [S-(R*,S*)]-4-[[3,3-diethyl-1-[[[1-(4-methyl-phenyl)butyl]amino]carbonyl]-4-oxo-2-azetidinyl]oxy]benzoate]	2.29e+06 M⁻¹ s⁻¹
CCC[C@@H](NC(=O)N1C(=O)C(CC)(CC)[C@@H]1Oc1ccc(C(=O)NCCN2CCN(C(=O)OCc3ccccc3)CC2)cc1)c1ccc(C)cc1 [Compound 117]	6.23e+06 M⁻¹ s⁻¹
CCC[C@@H](NC(=O)N1C(=O)C(CC)(CC)[C@@H]1Oc1ccc(C(=O)N(C)CCN(C(C)C)C(C)C)cc1)c1ccc(C)cc1 [Compound 86]	2.45e+06 M⁻¹ s⁻¹
CCC[C@@H](NC(=O)N1C(=O)C(CC)(CC)[C@@H]1Oc1ccc(C(=O)N(C)CCN2CCNCC2)cc1)c1ccc(C)cc1 [Compound 151]	1.19e+06 M⁻¹ s⁻¹
CCC[C@@H](NC(=O)N1C(=O)C(CC)(CC)[C@@H]1Oc1ccc(CC(=O)N(C)CCCN(C)C)cc1)c1ccc(C)cc1 [Compound 56]	1.05e+06 M⁻¹ s⁻¹
CCC[C@@H](NC(=O)N1C(=O)C(CC)(CC)[C@@H]1Oc1ccc(C(=O)NC2CC(C)(C)NC(C)(C)C2)cc1)c1ccc(C)cc1 [Compound 174]	869000 M⁻¹ s⁻¹
CCC[C@@H](NC(=O)N1C(=O)C(CC)(CC)[C@@H]1Oc1ccc(CC(=O)N(C)CCCC(=O)NS(=O)(=O)c2ccccc2)cc1)c1ccc(C)cc1 [Compound 65]	1.34e+06 M⁻¹ s⁻¹
CCC[C@@H](NC(=O)N1C(=O)C(CC)(CC)[C@@H]1Oc1ccc(C(=O)N(C)CCN2CCCCC2)cc1)c1ccc(C)cc1 [Compound 91]	892000 M⁻¹ s⁻¹
CCC[C@@H](NC(=O)N1C(=O)C(CC)(CC)[C@@H]1Oc1ccc(C(=O)NCCn2cncn2)cc1)c1ccc(C)cc1 [Compound 96]	1.4e+06 M⁻¹ s⁻¹
CCC[C@@H](NC(=O)N1C(=O)C(CC)(CC)[C@@H]1Oc1ccc(CC(=O)OCC(=O)O)cc1)c1ccc(C)cc1 [Compound 38]	1.01e+06 M⁻¹ s⁻¹
CCC[C@@H](NC(=O)N1C(=O)C(CC)(CC)[C@@H]1Oc1ccc(CC(=O)OCCN(C)C)cc1)c1ccc(C)cc1 [Compound 32]	1.99e+06 M⁻¹ s⁻¹
CCC[C@@H](NC(=O)N1C(=O)C(CC)(CC)[C@@H]1Oc1ccc(C(=O)N(CC)CC)cc1)c1ccc(C)cc1 [Compound 128]	1.45e+06 M⁻¹ s⁻¹
CCC[C@@H](NC(=O)N1C(=O)C(CC)(CC)[C@@H]1Oc1ccc(CC(=O)Nc2cccc(OC)c2)cc1)c1ccc(C)cc1 [Compound 62]	1.62e+06 M⁻¹ s⁻¹
CCC[C@@H](NC(=O)N1C(=O)C(CC)(CC)[C@@H]1Oc1ccc(CC(=O)OCCN(C)Cc2ccccc2)cc1)c1ccc(C)cc1 [Compound 39]	751000 M⁻¹ s⁻¹
CCC[C@@H](NC(=O)N1C(=O)C(CC)(CC)[C@@H]1Oc1ccc(CC(=O)N(C)CCN(CCOC)CCOC)cc1)c1ccc(C)cc1 [Compound 54]	1.39e+06 M⁻¹ s⁻¹
CCC[C@@H](NC(=O)N1C(=O)C(CC)(CC)[C@@H]1Oc1ccc(C(=O)N(C)CCO)cc1)c1ccc(C)cc1 [Compound 169]	1.46e+06 M⁻¹ s⁻¹
CCC[C@@H](NC(=O)N1C(=O)C(CC)(CC)[C@@H]1Oc1ccc(CC(=O)N(C)CCCN(C)Cc2ccccc2)cc1)c1ccc(C)cc1 [Compound 66]	1.36e+06 M⁻¹ s⁻¹
CCC[C@@H](NC(=O)N1C(=O)C(CC)(CC)[C@@H]1Oc1ccc(CC(=O)N(C)CC(=O)N(CCO)CCO)cc1)c1ccc(C)cc1 [Compound 52]	273000 M⁻¹ s⁻¹
CCC[C@@H](NC(=O)N1C(=O)C(CC)(CC)[C@@H]1Oc1ccc(C(=O)OCCN2CCNCC2)cc1)c1ccc(C)cc1 [Compound 25]	1.71e+06 M⁻¹ s⁻¹
CCC[C@@H](NC(=O)N1C(=O)C(CC)(CC)[C@@H]1Oc1ccc(C(=O)N(CC)CCN2CCCCC2)cc1)c1ccc(C)cc1 [Compound 132]	1.24e+06 M⁻¹ s⁻¹
CCC[C@@H](NC(=O)N1C(=O)C(CC)(CC)[C@@H]1Oc1ccc(C(=O)N(CCN(C)C)Cc2ccccc2)cc1)c1ccc(C)cc1 [Compound 137]	1.38e+06 M⁻¹ s⁻¹
CCC[C@@H](NC(=O)N1C(=O)C(CC)(CC)[C@@H]1Oc1ccc(C(=O)OCC[N+](C)(C)[O-])cc1)c1ccc(C)cc1 [Compound 15]	2.16e+06 M⁻¹ s⁻¹
CCC[C@@H](NC(=O)N1C(=O)C(CC)(CC)[C@@H]1Oc1ccc(C(=O)N2CCC[C@@H]2CN2CCCC2)cc1)c1ccc(C)cc1 [Compound 154]	1.67e+06 M⁻¹ s⁻¹
CCC[C@@H](NC(=O)N1C(=O)C(CC)(CC)[C@@H]1Oc1ccc(CC(=O)N(C)c2ccc(C(=O)NS(=O)(=O)c3ccccc3)cc2)cc1)c1ccc(C)cc1 [Compound 72]	3.28e+06 M⁻¹ s⁻¹

More lines, now with the values ahead:

kinact/KI	SMILES
846000 M⁻¹ s⁻¹	CCC[C@@H](NC(=O)N1C(=O)C(CC)(CC)[C@@H]1Oc1ccc(C(=O)N(C)CCN(C)C)cc1)c1ccc(C#N)cc1 [Compound 295]
3.12e+06 M⁻¹ s⁻¹	CCCCN(C)C(=O)c1ccc(O[C@@H]2N(C(=O)N[C@H](CCC)c3ccc4c(c3)OCO4)C(=O)C2(CC)CC)cc1 [Compound 262]
1.87e+06 M⁻¹ s⁻¹	CCC[C@@H](NC(=O)N1C(=O)C(CC)(CC)[C@@H]1Oc1ccc(C(=O)N(C)CCN(C)C2CC3CCC2C3)cc1)c1ccc(C)cc1 (stereo partly drawn) [Compound 220]
1.95e+06 M⁻¹ s⁻¹	CCC[C@@H](NC(=O)N1C(=O)C(CC)(CC)[C@@H]1Oc1ccc(C(=O)N2CCN(CC(=O)O)CC2)cc1)c1ccc(C)cc1 [Compound 251]
826000 M⁻¹ s⁻¹	CCC[C@@H](NC(=O)N1C(=O)C(CC)(CC)[C@@H]1Oc1ccc(CC(=O)N(CCC)CCC)cc1)c1ccc(C)c(C(=O)N2CCOCC2)c1 [Compound 271]
430000 M⁻¹ s⁻¹	CCC[C@@H](NC(=O)N1C(=O)C(CC)(CC)[C@@H]1Oc1ccc(CC(N)=O)cc1)c1ccc(C(=O)N2CCOCC2)cc1 [Compound 274]
2.39e+06 M⁻¹ s⁻¹	CCC[C@@H](NC(=O)N1C(=O)C(CC)(CC)[C@@H]1Oc1ccc(C(=O)N2CCN(C(C)C)CC2)cc1)c1ccc(C)cc1 [Compound 248]
566000 M⁻¹ s⁻¹	CCC[C@@H](NC(=O)N1C(=O)C(CC)(CC)[C@@H]1Oc1ccc(C(=O)N(CC)CC)cc1)c1ccc(C(=O)N2CCOCC2)cc1 [Compound 279]
5.28e+06 M⁻¹ s⁻¹	CCC[C@@H](NC(=O)N1C(=O)C(CC)(CC)[C@@H]1Oc1ccc(C(=O)N2CCN(c3ccccc3)CC2)cc1)c1ccc(C)cc1 [Compound 245]
2.32e+06 M⁻¹ s⁻¹	CCC[C@@H](NC(=O)N1C(=O)C(CC)(CC)[C@@H]1Oc1ccc(C(=O)N2CCN(CC)CC2)cc1)c1ccc(C)cc1 [Compound 252]
3.59e+06 M⁻¹ s⁻¹	CCC[C@@H](NC(=O)N1C(=O)C(CC)(CC)[C@@H]1Oc1ccc(C(=O)N2CCN(C3CC3)CC2)cc1)c1ccc(C)cc1 (relative stereo) [Compound 256, [S(R*,S*)]-2-[4-[[(4-Cyclopropyl)piperazin-1-yl]carbonyl]phenoxy]-((3,3-diethyl-N-[1-(4-methylphenyl)butyl]-4-oxo-1-azetidinecarboxamide]
1.34e+06 M⁻¹ s⁻¹	CCC[C@@H](NC(=O)N1C(=O)C(CC)(CC)[C@@H]1Oc1ccc(C(=O)N2CCC(N(C)C)C2)cc1)c1ccc(C)cc1 (stereo partly drawn) [Compound 229]
1.1e+06 M⁻¹ s⁻¹	CCC[C@@H](NC(=O)N1C(=O)C(CC)(CC)[C@@H]1Oc1ccc(C(=O)N(C)CCCN(C)CC)cc1)c1ccc(C)cc1 [Compound 214]

Same assay, conditions: second order rate constant for inactivation of the enzyme, expressed to the nearest thousand; pH 7.5

SMILES	Kobs/[I]
CCC[C@@H](NC(=O)N1C(=O)C(CC)(CC)[C@@H]1Oc1ccc(C(=O)N(C)CCN2CC3CCC(CC3)C2)cc1)c1ccc(C)cc1 [Compound 108]	2,953,000 per mole per second
CCC[C@@H](NC(=O)N1C(=O)C(CC)(CC)[C@@H]1Oc1ccc(CC(=O)N(C)CCN(C)C)cc1)c1ccc(OC)cc1 [Compound 285]	566,000 per mole per second
